Experimental findings from ChEMBL document CHEMBL4831501, “Discovery of a potent and selective inhibitor of histone lysine demethylase KDM4D” (Eur J Med Chem, 2021) are described below.

In test [1] the target is T1, Lysine-specific demethylase 4D (Homo sapiens, UniProt Q6B0I6).
T1 sequence (Q6B0I6 whole entry): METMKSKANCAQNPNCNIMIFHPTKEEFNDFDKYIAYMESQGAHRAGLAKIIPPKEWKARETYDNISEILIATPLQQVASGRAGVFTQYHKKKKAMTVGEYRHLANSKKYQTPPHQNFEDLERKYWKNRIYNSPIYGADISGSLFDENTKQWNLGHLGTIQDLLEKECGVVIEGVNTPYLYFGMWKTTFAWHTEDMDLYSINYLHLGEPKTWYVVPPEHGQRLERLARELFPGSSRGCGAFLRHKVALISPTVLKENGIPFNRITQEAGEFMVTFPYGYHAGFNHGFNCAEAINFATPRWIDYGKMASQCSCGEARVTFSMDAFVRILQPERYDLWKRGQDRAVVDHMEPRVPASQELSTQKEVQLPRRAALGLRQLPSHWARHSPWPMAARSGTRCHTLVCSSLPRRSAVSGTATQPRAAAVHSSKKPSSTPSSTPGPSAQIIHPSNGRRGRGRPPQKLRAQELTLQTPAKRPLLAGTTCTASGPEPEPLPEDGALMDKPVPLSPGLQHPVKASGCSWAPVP
Kind of test: Inhibition of human KDM4D expressed in Escherichia coli BL21 (DE3) using biotinylated H3-derived peptide and 2-OG as substrate preincubated for 15 mins followed by substrate addition and measured after 1 hr by AlphaLISA assay.

Test [2] deals with T2, Lysine-specific demethylase 4D (Homo sapiens) (UniProt Q6B0I6).
T2 sequence (whole entry): T1 sequence (Q6B0I6 whole entry)
Kind of test: Inhibition of human KDM4D expressed in Escherichia coli BL21 (DE3) at 1 uM using biotinylated H3-derived peptide and 2-OG as substrate preincubated for 15 mins followed by substrate addition and measured after 1 hr by AlphaLISA assay. Particulars: time 75.0 min.

pIC50: −log10 of the molar value.

Turning to `O=C(N[C@@H]1CCN(C(c2ccncc2)c2cc3c(cc2O)OCO3)C1)C1CCCCC1` (some centres undefined), in test [1], the pIC50 was 6.28. This molecule registered an inhibition in test [2] of 99.2%.

In test [1], `O=C(N[C@@H]1CCN(C(c2ccncc2)c2cc3c(cc2O)OCO3)C1)c1cccc(F)c1` (some centres undefined) had a negative-log IC50 (pIC50) of 6.45. The same molecule had an inhibition in test [2] of 99.7%.

`O=C(N[C@@H]1CCN(C(c2ccncc2)c2cc3c(cc2O)OCO3)C1)c1ccccc1Cl` (some centres undefined) had a negative logarithm of the IC50 (pIC50) in test [1] of 6.73. The molecule further gave an inhibition in test [2] of 94.2%.

In the case of `CC(C)(C)OC(=O)N[C@@H]1CCN(C(c2cc3c(cc2O)OCO3)c2ccnc3ccccc23)C1` (some centres undefined), the pIC50 in test [1] was 7.00. Also, the inhibition in test [2] amounted to 99.5%.

Molecule `COc1cc(C#N)ccc1C(c1cc2c(cc1O)OCO2)N1CC[C@@H](NC(=O)OC(C)(C)C)C1` (some centres undefined) had a pIC50 in test [1] of 6.43. Further, in test [2], the inhibition was 98.1%.

In turn, `CCOc1ccc(C(=O)N[C@@H]2CCN(C(c3ccncc3)c3cc4c(cc3O)OCO4)C2)cc1` (some centres undefined) gave a negative-log IC50 (pIC50) in test [1] of 6.77. Besides, in test [2], the inhibition is 97.3%.

Consider `COc1cc(O)c(C(c2ccncc2)N2CC[C@@H](NC(=O)OC(C)(C)C)C2)cc1OC` (some centres undefined), for which, in test [1], the negative-log IC50 (pIC50) is 6.20. This molecule also came in with an inhibition in test [2] of 98.6%.

Broadly, the pIC50 is the negative decadic logarithm of the IC50, by convention in mol/L. High values mean a small IC50, low ones a large IC50. What is called inhibition is the drop in the measured response relative to a control, in per cent. Higher therefore signals a response far below the control.
